Experimental data reported in publication PMC4111878, “Three New Humulane Sesquiterpenes from Cultures of the Fungus Antrodiella albocinnamomea” (Natural Products and Bioprospecting, 2014).

Tests used:
[1] = target: T1, MEG2 (Homo sapiens, UniProt P43378); test: Enzyme inhibition assay against protein-tyrosine phosphatase MEG2 (pNPP hydrolysis); assay type: biochemical; details: recombinant His-tagged enzyme, 10 ng per well, pNPP 2 mM, pH 6.0, room temperature, 15 min preincubation, triplicate; NA = no activity; read-out: inhibitory activity against protein-tyrosine phosphatase MEG2, IC50 (converted)
T1 construct: 6xHis (N); made in house; host or cells: E. coli
T1 sequence (P43378 1-593): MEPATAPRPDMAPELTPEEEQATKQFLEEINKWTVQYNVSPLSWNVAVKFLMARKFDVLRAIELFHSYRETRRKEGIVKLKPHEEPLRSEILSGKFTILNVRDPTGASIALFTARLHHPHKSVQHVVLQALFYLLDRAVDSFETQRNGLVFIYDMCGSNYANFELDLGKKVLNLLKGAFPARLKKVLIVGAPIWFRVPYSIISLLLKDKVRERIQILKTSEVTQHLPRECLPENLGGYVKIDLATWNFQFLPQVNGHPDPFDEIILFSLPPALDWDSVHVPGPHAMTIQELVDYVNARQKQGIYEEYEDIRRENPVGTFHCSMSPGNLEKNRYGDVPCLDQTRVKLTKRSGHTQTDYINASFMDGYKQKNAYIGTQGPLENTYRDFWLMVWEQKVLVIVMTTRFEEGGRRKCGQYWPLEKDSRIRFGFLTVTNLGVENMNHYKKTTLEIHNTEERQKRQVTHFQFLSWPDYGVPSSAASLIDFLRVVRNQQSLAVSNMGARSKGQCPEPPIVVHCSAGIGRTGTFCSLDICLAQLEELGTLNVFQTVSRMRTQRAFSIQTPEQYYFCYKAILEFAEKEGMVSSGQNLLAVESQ
Method: (§1) The enzymatic assay was carried out at room temperature in 96-well plates. After the assay buffer which contained 100 mM Hepes (pH 6.0), 5 mM DTT 0.015 % Brij-35 and PTPase (20 ng PTP1B, 10 ng MEG2per well) was incubated with tested compounds for 15 min, the reaction was initiated by addition of the substrate p-nitrophenol phosphate (pNPP, Sigma, P4744, St. Louis, USA) at a final concentration of 2 mM. The activity of PTPase-catalyzed hydrolysis of pNPP was determined by measuring the amount of p-nitrophenol and the absorbance at 405 nm was recorded as the amount of p-nitrophenol. The IC50 value was determined by the non-linear curve fitting of the percentage inhibition versus inhibitor concentration plot. […] Louis, USA) was used for the positive control. All the assays were carried out in triplicate and the average results were presented.

[2] = target: T2, PTP1Bc (Homo sapiens, UniProt P18031); test: Enzyme inhibition assay against protein-tyrosine phosphatase PTP1Bc (pNPP hydrolysis); assay type: biochemical; details: recombinant His-tagged enzyme, 20 ng per well, pNPP 2 mM, pH 6.0, room temperature, 15 min preincubation, triplicate; NA = no activity; read-out: inhibitory activity against protein-tyrosine phosphatase PTP1Bc, IC50 (converted)
T2 sequence (P18031 1-298 limits assumed): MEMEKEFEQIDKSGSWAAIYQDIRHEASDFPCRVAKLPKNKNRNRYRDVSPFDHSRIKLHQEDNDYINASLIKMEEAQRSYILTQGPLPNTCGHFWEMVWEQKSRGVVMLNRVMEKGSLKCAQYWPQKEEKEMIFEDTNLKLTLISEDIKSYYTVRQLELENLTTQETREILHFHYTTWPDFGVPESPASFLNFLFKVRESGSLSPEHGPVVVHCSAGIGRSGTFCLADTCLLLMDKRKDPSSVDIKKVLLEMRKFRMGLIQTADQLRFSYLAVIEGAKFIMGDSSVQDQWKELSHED
Method: as §1

Compound `C[C@H]1[C@H](C)CC[C@]2(C(=O)O)CC[C@]3(C)C(=CC[C@@H]4[C@@]5(C)CC[C@H](O)C(C)(C)[C@@H]5CC[C@]43C)[C@H]12` [Ursolic acid, reference compound] has an IC50 [1] of 1.75 µM.
`CC1(C)C=CC(O)C2(C)OC2CCC2(C)OC2C1` (stereo not drawn) [Compound 3, 6,7:10,11-diepoxy-3E-humulen-5β-ol] showed an IC50 [2] of 59.8 µM.
Work on `CC1=CC(O)C(C)(O)C(C)CCC2(C)OC2CC1` (stereo not shown) [Compound 1, 6,7-epoxy-10E-humulen-1,2-diol] yielded an IC50 [2] of 39.3 µM and an IC50 [1] of 31.5 µM.
